Where two headings read alike, the source gives them in different places.
Experiments:
[1] = molecular target: T1, murine-derived wild-type (WT) GPR39 (Mus musculus, UniProt Q5U431); experiment: Calcium imaging on 293T cells transiently transfected with wild-type GPR39; assay type: cell-based; conditions: transiently transfected HEK293T cells
T1 construct: 3HA (N); P2A-mCherry (C); expressed in transfected cells; host or cells: HEK293T, transient (Lipofectamine 3000)
T1 sequence (Q5U431 1-456): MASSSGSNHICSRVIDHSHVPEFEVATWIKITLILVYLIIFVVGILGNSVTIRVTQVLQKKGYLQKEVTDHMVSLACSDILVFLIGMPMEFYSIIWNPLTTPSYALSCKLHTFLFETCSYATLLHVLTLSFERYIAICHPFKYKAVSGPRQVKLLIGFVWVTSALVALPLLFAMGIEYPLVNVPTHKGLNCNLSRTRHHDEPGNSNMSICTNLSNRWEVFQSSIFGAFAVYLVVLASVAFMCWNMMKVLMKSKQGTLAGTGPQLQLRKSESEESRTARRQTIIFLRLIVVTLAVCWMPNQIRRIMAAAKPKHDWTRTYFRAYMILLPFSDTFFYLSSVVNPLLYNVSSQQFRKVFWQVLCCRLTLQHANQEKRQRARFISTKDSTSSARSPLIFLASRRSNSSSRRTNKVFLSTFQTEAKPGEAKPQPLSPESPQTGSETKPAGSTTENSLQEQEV
Description: In the present application, the bile acid and/or derivative thereof is capable of activating the GPR39 independent of a zinc ion binding site. For example, in some embodiments, murine-derived wild-type (WT) GPR39 or zinc ion binding site mutant (H17A and H19A) GPR39 are transiently expressed in 293T cells by using lipofectamine3000 transfection kit. The activation effect of LCAS on the wild-type (WT) and mutants (H17A and H19A) is detected by calcium imaging.
HEK293T cells were seeded in a PDL-coated 96-well plate (coring Co.) at an appropriate density (about 3×10^4 cells/well) and cultured under conditions of 37° C. and 5% CO2. 24 h after seeding, when the cell density reached 60%-70%, Lipofectamine 3000 (Invitrogen) was used for transfection, in which the concentration of plasmid transfection was 50 ng per well. […] 2) Zinc ions […] on the activation of mutants H17A and H19A of GPR39 by LCAS.

[2] = molecular target: T2, Neuromedin-U receptor 2 (NMUR2, NP_064552.3) (Homo sapiens, UniProt Q9GZQ4); experiment: Confocal calcium imaging of Ghrelin receptor family, overexpressed in HEK293T cells; assay type: cell-based; conditions: 200 μM
T2 construct: mCherry; host or cells: HEK293T, transient
T2 sequence (Q9GZQ4 whole entry): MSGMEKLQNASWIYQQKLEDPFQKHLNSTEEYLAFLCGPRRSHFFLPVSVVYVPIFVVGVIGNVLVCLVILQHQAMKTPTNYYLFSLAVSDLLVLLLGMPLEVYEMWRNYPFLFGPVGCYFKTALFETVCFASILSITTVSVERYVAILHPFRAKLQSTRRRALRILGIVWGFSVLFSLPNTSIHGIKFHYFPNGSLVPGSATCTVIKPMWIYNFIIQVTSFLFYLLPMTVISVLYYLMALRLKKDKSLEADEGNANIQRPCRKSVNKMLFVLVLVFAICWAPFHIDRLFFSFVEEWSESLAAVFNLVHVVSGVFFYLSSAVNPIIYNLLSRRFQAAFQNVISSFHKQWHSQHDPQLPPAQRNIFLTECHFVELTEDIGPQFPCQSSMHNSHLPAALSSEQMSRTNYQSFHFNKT
Description: (§1) According to the transient transfection method of Example 5.2, the 6 receptors of Ghrelin family except GPR39 were overexpressed in HEK293T cells respectively (the expression vectors for these 6 receptors came from the research group of Rao Yi, Peking University), and calcium dye was incubated. An inverted laser confocal microscope (leica Co.) was used to detect the activation of the 6 receptors of Ghrelin family by LCAS. The specific operations were as below: placing the cells to be detected on the microscope stage, detecting the fluorescence signal value of the calcium dye Fluo8 with the 488 nm channel, and detecting the fluorescence signal value of mCherry with the 543 nm channel. All receptors fused to express the red fluorescence protein mCherry, and the expression of receptors was determined by detecting the red fluorescence emitted from mCherry.

[3] = molecular target: T3, Ghrelin receptor (GHSR, NP_940799.1) (Homo sapiens, UniProt Q92847); experiment: as above; assay type: cell-based; conditions: 200 μM
T3 construct: mCherry; host or cells: HEK293T, transient
T3 sequence (Q92847 whole entry): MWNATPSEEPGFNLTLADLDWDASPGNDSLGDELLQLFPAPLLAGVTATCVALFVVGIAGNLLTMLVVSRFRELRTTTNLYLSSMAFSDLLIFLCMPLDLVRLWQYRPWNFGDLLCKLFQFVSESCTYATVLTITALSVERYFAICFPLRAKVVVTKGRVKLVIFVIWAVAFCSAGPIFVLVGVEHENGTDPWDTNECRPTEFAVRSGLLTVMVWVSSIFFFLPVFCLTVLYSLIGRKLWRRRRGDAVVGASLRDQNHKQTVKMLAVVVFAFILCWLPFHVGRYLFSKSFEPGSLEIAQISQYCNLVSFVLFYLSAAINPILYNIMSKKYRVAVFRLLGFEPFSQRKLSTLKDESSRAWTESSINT
Description: as §1

[4] = molecular target: T4, Motilin receptor (MLNR, NP_001498.1) (Homo sapiens, UniProt O43193); experiment: as above; assay type: cell-based; conditions: 200 μM
T4 construct: mCherry; host or cells: HEK293T, transient
T4 sequence (O43193 whole entry): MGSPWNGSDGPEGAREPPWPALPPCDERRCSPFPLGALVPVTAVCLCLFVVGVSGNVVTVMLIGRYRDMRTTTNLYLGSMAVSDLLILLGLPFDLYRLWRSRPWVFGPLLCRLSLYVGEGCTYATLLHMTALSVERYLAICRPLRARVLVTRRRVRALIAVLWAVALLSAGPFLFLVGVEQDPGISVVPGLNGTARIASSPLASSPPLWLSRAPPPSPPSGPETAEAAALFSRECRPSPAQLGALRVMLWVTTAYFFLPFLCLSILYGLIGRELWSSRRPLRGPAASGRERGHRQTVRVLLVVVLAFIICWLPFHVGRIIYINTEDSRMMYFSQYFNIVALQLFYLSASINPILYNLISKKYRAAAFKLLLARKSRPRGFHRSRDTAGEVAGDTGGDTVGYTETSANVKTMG
Description: as §1

[5] = molecular target: T5, Neuromedin-U receptor 1 (NMUR1, NP_006047.3) (Homo sapiens, UniProt Q9HB89); experiment: as above; assay type: cell-based; conditions: 200 μM
T5 construct: mCherry; host or cells: HEK293T, transient
T5 sequence (Q9HB89 1-426): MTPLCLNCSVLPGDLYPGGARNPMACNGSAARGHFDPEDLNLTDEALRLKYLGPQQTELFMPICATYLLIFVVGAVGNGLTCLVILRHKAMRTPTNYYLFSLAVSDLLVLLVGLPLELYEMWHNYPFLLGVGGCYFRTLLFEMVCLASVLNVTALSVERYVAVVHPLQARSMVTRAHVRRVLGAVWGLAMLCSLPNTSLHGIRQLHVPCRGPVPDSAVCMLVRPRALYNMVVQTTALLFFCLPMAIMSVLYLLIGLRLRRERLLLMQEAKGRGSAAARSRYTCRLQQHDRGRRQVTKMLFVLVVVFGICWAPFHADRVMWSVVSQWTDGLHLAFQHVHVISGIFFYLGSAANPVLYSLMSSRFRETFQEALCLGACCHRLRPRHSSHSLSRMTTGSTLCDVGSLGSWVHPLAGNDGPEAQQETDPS
Description: as §1

[6] = molecular target: T6, Neurotensin receptor 1 (NTSR1, NP_002522.2) (Homo sapiens, UniProt P30989); experiment: as above; assay type: cell-based; conditions: 200 μM
T6 construct: mCherry; host or cells: HEK293T, transient
T6 sequence (P30989 whole entry): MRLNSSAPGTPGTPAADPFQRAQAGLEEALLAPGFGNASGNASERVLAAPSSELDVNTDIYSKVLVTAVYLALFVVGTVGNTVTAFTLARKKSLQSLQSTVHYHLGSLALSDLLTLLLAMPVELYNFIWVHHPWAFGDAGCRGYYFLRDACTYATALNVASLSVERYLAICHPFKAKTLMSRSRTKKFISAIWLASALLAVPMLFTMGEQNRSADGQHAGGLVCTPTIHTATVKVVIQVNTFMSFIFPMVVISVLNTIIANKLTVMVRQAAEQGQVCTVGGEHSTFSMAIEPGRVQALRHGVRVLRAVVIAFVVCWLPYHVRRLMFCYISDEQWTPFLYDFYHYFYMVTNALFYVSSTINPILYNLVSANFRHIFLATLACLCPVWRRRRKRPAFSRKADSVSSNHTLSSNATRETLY
Description: as §1

[7] = molecular target: T7, Neurotensin receptor 2 (NTSR2, NP_036476.2) (Homo sapiens, UniProt O95665); experiment: as above; assay type: cell-based; conditions: 200 μM
T7 construct: mCherry; host or cells: HEK293T, transient
T7 sequence (O95665 whole entry): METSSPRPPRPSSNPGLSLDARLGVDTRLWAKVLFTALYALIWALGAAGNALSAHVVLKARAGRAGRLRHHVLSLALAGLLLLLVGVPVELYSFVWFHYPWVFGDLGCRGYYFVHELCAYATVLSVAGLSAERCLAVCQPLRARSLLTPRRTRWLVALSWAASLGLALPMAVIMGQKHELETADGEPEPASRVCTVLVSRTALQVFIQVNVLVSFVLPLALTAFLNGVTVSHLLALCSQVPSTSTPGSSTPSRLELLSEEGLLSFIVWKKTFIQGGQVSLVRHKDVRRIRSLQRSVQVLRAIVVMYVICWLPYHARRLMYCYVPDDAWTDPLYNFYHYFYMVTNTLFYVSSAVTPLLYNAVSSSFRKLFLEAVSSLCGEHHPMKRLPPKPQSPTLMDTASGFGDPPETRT
Description: as §1

[8] = tested on: GPR39; experiment: Confocal calcium imaging of Ghrelin receptor family; assay type: cell-based; conditions: 200 μM
[9] = molecular target: T8, GPR39 (Homo sapiens, UniProt O43194); conditions: cell line that transiently or stably expresses GPR39; read-out: phosphoinositide accumulation EC50; cited from earlier work
T8 sequence (O43194 1-453): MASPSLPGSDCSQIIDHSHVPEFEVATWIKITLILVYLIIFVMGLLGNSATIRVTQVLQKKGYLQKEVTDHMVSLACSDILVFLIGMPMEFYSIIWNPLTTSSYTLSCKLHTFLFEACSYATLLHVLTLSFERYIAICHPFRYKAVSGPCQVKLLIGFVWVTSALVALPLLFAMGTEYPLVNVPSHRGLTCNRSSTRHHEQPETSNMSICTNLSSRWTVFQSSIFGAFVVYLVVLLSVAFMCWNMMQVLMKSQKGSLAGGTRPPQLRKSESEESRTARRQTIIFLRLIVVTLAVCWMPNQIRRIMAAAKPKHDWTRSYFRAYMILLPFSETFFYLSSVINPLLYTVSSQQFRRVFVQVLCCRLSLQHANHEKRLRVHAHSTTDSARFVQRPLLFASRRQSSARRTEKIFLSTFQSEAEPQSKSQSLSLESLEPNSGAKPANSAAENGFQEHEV

[10] = molecular target: T8, GPR39; conditions: cell line that transiently or stably expresses GPR39; read-out: cAMP elevation EC50; cited from earlier work

| SMILES | EC50 ([1]; + 4 μM zinc ions) | EC50 ([1]; agonist alone) | activation of NMUR2 (calcium imaging) [2] | activation of GHSR (calcium imaging) [3] | activation of MLNR (calcium imaging) [4] | activation of NMUR1 (calcium imaging) [5] | activation of NTSR1 (calcium imaging) [6] | activation of NTSR2 (calcium imaging) [7] | activation of GPR39 (calcium imaging) [8] | EC50 [9] | EC50 [10] |
| --- | --- | --- | --- | --- | --- | --- | --- | --- | --- | --- | --- |
| C[C@H](CCC(=O)O)[C@H]1CC[C@H]2[C@@H]3CC[C@@H]4C[C@H](OS(=O)(=O)O)CC[C@]4(C)[C@H]3CC[C@]12C [LCAS] | 5.2 ± 0.7 µM | 33.1 ± 5.1 µM | cannot be activated | cannot be activated | cannot be activated | cannot be activated | cannot be activated | cannot be activated | may be activated | – | – |
| [Zn+2] [Zinc ions, reference compound] | – | 12 ± 5.3 µM | – | – | – | – | – | – | – | 22 µM | 7.4 µM |
